One may read the IC50 as the point on the concentration scale where inhibition reaches its midpoint. Lower therefore signals greater potency.

Our source for the IC50 values is US20130303509A1, “NAMPT INHIBITORS” (AbbVie Inc., priority 2012, published 2013).

The test system of this experiment is PC3 cells. The experiment in a line: NAMPT Cell Proliferation Assay. It counts as cell-based. The conditions noted are these: Homo sapiens, PC-3, 120 h, 5 days incubation, cell viability by Cell Titer Glo. An outline of the steps:
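Five-day CellTiter-Glo viability readout in PC3 cells grown in RPMI/10% heat-inactivated FBS. Compounds added after overnight attachment as a 10-fold dilution series, […]. Percent inhibition fitted to sigmoidal dose-response to derive IC50.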
For orientation: Cellular ATP, detected with luciferase, serves as a proxy for viable cell number.
Turning to `O=C(N[C@H]1CCN(c2cccnn2)C1)c1ccc(C2CCN(C(=O)C3CCOCC3)CC2)s1` [Example 758, N-[(3S)-1-(pyridazin-3-yl)pyrrolidin-3-yl]-5-[1-(tetrahydro-2H-pyran-4-ylcarbonyl)piperidin-4-yl]thiophene-2-carboxamide], half-maximal inhibition (IC50) required 857 nM. That is a sub-micromolar value.

Compound `O=C(Nc1ccc(C2CCN(C(=O)c3ccc(F)cc3F)CC2)cc1)C1CN(c2cccnn2)C1` [Example 391, N-{4-[1-(2,4-difluorobenzoyl)piperidin-4-yl]phenyl}-1-(pyridazin-3-yl)azetidine-3-carboxamide] showed a half-inhibitory concentration (IC50) of 5.99 nM.

As for `O=C(Nc1ccc(C2CCN(C(=O)CC3CCCCC3)CC2)cc1)[C@H]1CCN(c2cccnn2)C1` [Example 704, (3S)-N-{4-[1-(cyclohexylacetyl)piperidin-4-yl]phenyl}-1-(pyridazin-3-yl)pyrrolidine-3-carboxamide], inhibition was half-maximal at 5.3 nM (IC50).

Compound `CC(C)(C)C(=O)N1CCC(Oc2ccc(NC(=O)C3CN(c4ccnnc4)C3)cc2)CC1` [Example 280, N-(4-{[1-(2,2-dimethylpropanoyl)piperidin-4-yl]oxy}phenyl)-1-(pyridazin-4-yl)azetidine-3-carboxamide] showed a 50% inhibitory concentration (IC50) of 71.9 nM.

For the compound `O=C(Nc1ccc(OC2CN(C(=O)c3ccc(C(F)(F)F)cc3)C2)cc1)C1CN(c2ccnnc2)C1` [Example 205, 1-(pyridazin-4-yl)-N-[4-({1-[4-(trifluoromethyl)benzoyl]azetidin-3-yl}oxy)phenyl]azetidine-3-carboxamide], the half-maximal inhibitory concentration (IC50) is 38.7 nM.

Turning to `O=C(Nc1ccc(OC2CN(C(=O)c3ccoc3)C2)cc1)C1CN(c2ccnnc2)C1` [Example 209, N-(4-{[1-(furan-3-ylcarbonyl)azetidin-3-yl]oxy}phenyl)-1-(pyridazin-4-yl)azetidine-3-carboxamide], the IC50 was 81.6 nM.

As to `CSCCC(=O)N1CCC(c2ccc(NC(=O)C3CN(c4cccnn4)C3)cc2)CC1` [Example 337, N-(4-{1-[3-(methylsulfanyl)propanoyl]piperidin-4-yl}phenyl)-1-(pyridazin-3-yl)azetidine-3-carboxamide], the IC50 was 6.94 nM.

Regarding `O=C(Nc1ccc(O[C@@H]2CCN(C(=O)c3ccc(C(F)(F)F)cc3)C2)cc1)C1CN(c2cccnn2)C1` [Example 517, 1-(pyridazin-3-yl)-N-[4-({(3R)-1-[4-(trifluoromethyl)benzoyl]pyrrolidin-3-yl}oxy)phenyl]azetidine-3-carboxamide], it took 9.21 nM to reach half-maximal inhibition (IC50).

`COCC(=O)N1CCC(c2ccc(NC(=O)C3CN(c4cccnc4)C3)cc2)CC1` [Example 135, N-{4-[1-(methoxyacetyl)piperidin-4-yl]phenyl}-1-(pyridin-3-yl)azetidine-3-carboxamide] came in with an IC50 of 0.3 nM.

Compound `Cc1ncccc1N1CC(C(=O)Nc2ccc(C3CCN(C(=O)C4(C)CCCCC4)CC3)cc2)C1` [Example 177, N-(4-{1-[(1-methylcyclohexyl)carbonyl]piperidin-4-yl}phenyl)-1-(2-methylpyridin-3-yl)azetidine-3-carboxamide] had an IC50 of 107 nM.

`O=C(Nc1ccc(C2CCN(C(=O)c3ccsc3)CC2)cc1)C1CN(c2cccnc2)C1` [Example 109, 1-(pyridin-3-yl)-N-{4-[1-(thiophen-3-ylcarbonyl)piperidin-4-yl]phenyl}azetidine-3-carboxamide] showed an IC50 of 0.66 nM.

As to `CC(C)n1cc(-c2ccc(NC(=O)[C@H]3CCN(c4cccnn4)C3)cc2)cn1` [Example 770, (3S)-N-{4-[1-(propan-2-yl)-1H-pyrazol-4-yl]phenyl}-1-(pyridazin-3-yl)pyrrolidine-3-carboxamide], the IC50 was found to be 138 nM.

As to `O=C(Nc1ccc(C2CCN(C(=O)c3ccc(C(F)(F)F)cc3)CC2)cc1)[C@H]1CCN(c2cccnn2)C1` [Example 699, (3S)-1-(pyridazin-3-yl)-N-(4-{1-[4-(trifluoromethyl)benzoyl]piperidin-4-yl}phenyl)pyrrolidine-3-carboxamide], 65 nM corresponded to half-maximal inhibition (IC50).

`O=C(Nc1ccc(C2CN(C(=O)c3ccccc3)C2)cc1)[C@H]1CCN(c2cccnn2)C1` [Example 788, (3S)-N-[4-(1-benzoylazetidin-3-yl)phenyl]-1-(pyridazin-3-yl)pyrrolidine-3-carboxamide]: half-maximal inhibition (IC50) required 7.59 nM.

In turn, `O=C(Nc1ccc(O[C@@H]2CCN(C(=O)c3ccc(F)cc3F)C2)cc1)[C@H]1CCN(c2cccnn2)C1` [Example 783, (3S)-N-(4-{[(3R)-1-(2,4-difluorobenzoyl)pyrrolidin-3-yl]oxy}phenyl)-1-(pyridazin-3-yl)pyrrolidine-3-carboxamide] returned an IC50 of 6.46 nM. This IC50 and that of the compound before are within 1.5-fold of each other.

In turn, `O=C(Nc1ccc(OC2CCN(C(=O)C3CCCCC3)CC2)cc1)C1CN(c2cccnc2)C1` [Example 49, N-(4-{[1-(cyclohexylcarbonyl)piperidin-4-yl]oxy}phenyl)-1-(pyridin-3-yl)azetidine-3-carboxamide] displayed an IC50 of 6.96 nM. The IC50 values of the last two compounds are within 1.5-fold of each other.

In turn, `O=C(Nc1ccc(OC2CCN(C(=O)Cc3ccc(C(F)(F)F)cc3)CC2)cc1)C1CN(c2ccnnc2)C1` [Example 273, 1-(pyridazin-4-yl)-N-{4-[(1-{[4-(trifluoromethyl)phenyl]acetyl}piperidin-4-yl)oxy]phenyl}azetidine-3-carboxamide] returned an IC50 of 634 nM.

`Cc1ncccc1N1CC(C(=O)Nc2ccc(C3CCN(C(=O)CCN4CCOCC4)CC3)cc2)C1` [Example 184, 1-(2-methylpyridin-3-yl)-N-(4-{1-[3-(morpholin-4-yl)propanoyl]piperidin-4-yl}phenyl)azetidine-3-carboxamide]: half-maximal inhibition (IC50) was put at 604 nM.

For `O=C(Nc1ccc(OC2CCN(C(=O)CC(F)(F)F)CC2)cc1)C1CN(c2cccnn2)C1` [Example 252, 1-(pyridazin-3-yl)-N-(4-{[1-(3,3,3-trifluoropropanoyl)piperidin-4-yl]oxy}phenyl)azetidine-3-carboxamide], half-maximal inhibition (IC50) required 9.51 nM.

Take `O=C(Nc1ccc(O[C@@H]2CCN(C(=O)c3ccc(F)cc3F)C2)cc1)C1CN(c2cccnn2)C1` [Example 509, N-(4-{[(3R)-1-(2,4-difluorobenzoyl)pyrrolidin-3-yl]oxy}phenyl)-1-(pyridazin-3-yl)azetidine-3-carboxamide]: the midpoint of inhibition, the IC50, lay at 1.19 nM.

Consider `CC1CC1C(=O)N1CC(Oc2ccc(NC(=O)C3CN(c4ccnnc4)C3)cc2)C1` (stereo not drawn) [Example 257, N-[4-({1-[(2-methylcyclopropyl)carbonyl]azetidin-3-yl}oxy)phenyl]-1-(pyridazin-4-yl)azetidine-3-carboxamide], for which the IC50 is 76.1 nM.

The compound `Cc1ccc(F)cc1C(=O)N1CCC(c2ccc(NC(=O)C3CN(c4cccnn4)C3)cc2)CC1` [Example 388, N-{4-[1-(5-fluoro-2-methylbenzoyl)piperidin-4-yl]phenyl}-1-(pyridazin-3-yl)azetidine-3-carboxamide] gave an IC50 of 0.88 nM.

Take `O=C(Nc1ccc(O[C@@H]2CCN(C(=O)c3cc(F)cc(F)c3)C2)cc1)C1CN(c2cccnn2)C1` [Example 516, N-(4-{[(3R)-1-(3,5-difluorobenzoyl)pyrrolidin-3-yl]oxy}phenyl)-1-(pyridazin-3-yl)azetidine-3-carboxamide]: the IC50 stood at 2.26 nM.

Take `CC(C)C(=O)N1CCC(S(=O)(=O)c2ccc(NC(=O)C3CN(c4cccnn4)C3)cc2)CC1` [Example 598, N-(4-{[1-(2-methylpropanoyl)piperidin-4-yl]sulfonyl}phenyl)-1-(pyridazin-3-yl)azetidine-3-carboxamide]: the half-maximal inhibitory concentration (IC50) was found to be 208 nM.

Compound `O=C(Nc1ccc(O[C@@H]2CCN(C(=O)c3cscn3)C2)cc1)C1CN(c2cccnn2)C1` [Example 498, 1-(pyridazin-3-yl)-N-(4-{[(3R)-1-(1,3-thiazol-4-ylcarbonyl)pyrrolidin-3-yl]oxy}phenyl)azetidine-3-carboxamide] returned an IC50 of 6.64 nM.

With `O=C(Nc1ccc(C2CCN(C(=O)c3ccccc3F)CC2)cc1F)C1CN(c2ccnnc2)C1` [Example 868, N-{2-fluoro-4-[1-(2-fluorobenzoyl)piperidin-4-yl]phenyl}-1-(pyridazin-4-yl)azetidine-3-carboxamide], half-maximal inhibition (IC50) required 2.29 nM.

`O=C(Nc1ccc(OC2CCN(C(=O)c3ccsc3)CC2)cc1)C1CN(c2cccnc2)C1` [Example 58, 1-(pyridin-3-yl)-N-(4-{[1-(thiophen-3-ylcarbonyl)piperidin-4-yl]oxy}phenyl)azetidine-3-carboxamide] yielded an IC50 of 6.48 nM.

In turn, `Cc1ncccc1N1CC(C(=O)Nc2ccc(C3CCN(C(=O)[C@@H]4CCC(=O)N4)CC3)cc2)C1` [Example 174, 1-(2-methylpyridin-3-yl)-N-{4-[1-(5-oxo-L-prolyl)piperidin-4-yl]phenyl}azetidine-3-carboxamide] yielded an IC50 of 1130 nM. Compared with the last compound, the IC50 is about 170-fold higher.

The compound `O=C(NC1CN(c2cccnn2)C1)c1ccc(C2CCN(C(=O)C3CC3)CC2)s1` [Example 856, 5-[1-(cyclopropylcarbonyl)piperidin-4-yl]-N-[1-(pyridazin-3-yl)azetidin-3-yl]thiophene-2-carboxamide] gave an IC50 of 729 nM.

Regarding `CC(C)(C)C(=O)N1CCC(F)(c2ccc(NC(=O)C3CN(c4cccnn4)C3)cc2)CC1` [Example 864, N-{4-[1-(2,2-dimethylpropanoyl)-4-fluoropiperidin-4-yl]phenyl}-1-(pyridazin-3-yl)azetidine-3-carboxamide], the IC50 was found to be 5.29 nM.

In the case of `O=C(Nc1ccc(C2CCN(C(=O)Cc3c(Cl)cccc3Cl)CC2)cc1)[C@H]1CCN(c2cccnn2)C1` [Example 640, (3S)-N-(4-{1-[(2,6-dichlorophenyl)acetyl]piperidin-4-yl}phenyl)-1-(pyridazin-3-yl)pyrrolidine-3-carboxamide], 2.92 nM corresponded to half-maximal inhibition (IC50).

`Cc1cc(C(=O)N2CCC(c3ccc(NC(=O)C4CN(c5cccnn5)C4)cc3)CC2)c(C)o1` [Example 426, N-(4-{1-[(2,5-dimethylfuran-3-yl)carbonyl]piperidin-4-yl}phenyl)-1-(pyridazin-3-yl)azetidine-3-carboxamide] came in with a half-maximal inhibitory concentration (IC50) of 2.07 nM.

As for `CN(C)CCC(=O)N1CCC(c2ccc(NC(=O)C3CN(c4cccnc4)C3)cc2)CC1` [Example 107, N-{4-[1-(N,N-dimethyl-beta-alanyl)piperidin-4-yl]phenyl}-1-(pyridin-3-yl)azetidine-3-carboxamide], the concentration for half-maximal inhibition (IC50) came to 6.88 nM.
